Experimental findings from patent US8609672B2, “Piperazinylpyrimidine analogues as protein kinase inhibitors” (University of the Pacific, priority 2010, dated 2013) are described below.

As a reminder, the TGI is the concentration at which net growth stops. The low end stands for greater sensitivity of the cells, the high end for lower sensitivity of the cells.

For one assay, the target named is T1, ABL1(F317I) (Homo sapiens, UniProt P00519, F317I).
T1 construct: purchased Ambit Bioscience (assay service)
Nature of the assay: Kinase binding screening: ABL1(F317I). The settings on record: 10 μM compound, phosphorylated form, read-out: B-POC (binding percentage of control). The protocol: (§1) Biotinylated kinase ligand was immobilized onto streptavidin coated magnetic beads and washed with blocking buffer. The liganded beads were then incubated with DNA-tagged kinase in the presence of test compound for 1 h at room temperature. Binding reactions were carried out in 20% Seablock, 0.17×PBS, 0.005% Tween 20, 6 mM DTT, in a final volume of 0.04 mL. Beads were then washed with wash buffer (PBS, 0.05% Tween 20), and then incubated with elution buffer (PBS, 0.05% Tween […] non-biotinylated kinase ligand) and eluted. The kinase concentration in the eluate was then measured by quantitative PCR. […] The results of this single dose screening are reported in the form of binding percentage of control (B-POC) which is defined as follows:
(§2) [formula] The negative control signal is obtained by the vehicle and corresponds to B-POC=100%. The positive signal control is detected by a binding positive compound and is B-POC 0%. The B-POC results are the average of duplicate measurements. Only interactions with […] were considered significant and thus used for calculating the selectivity scores (Table 1) of the test compounds as follows:
(§3) [formula] […] The Kd is then calculated according to the following equation:
(§4) [formula] hill slope=−1. A non-linear least square fit with the Levenberg-Marquardt algorithm was implemented to fit the curves (FIG. 3). […]

The subject of another assay is UO-31. Nature of the assay: NCI-60 SRB growth inhibition: UO-31. The assay is classed as cell-based, human. The conditions noted are these: UO-31, Renal cancer; 48 hours treatment.
The test system of the next assay is T-47D. Nature of the assay: NCI-60 SRB growth inhibition: T-47D. The assay is classed as cell-based, human. The settings on record: Breast cancer, 48 hours treatment; for CC50: Homo sapiens, T47D, read-out: LC50 (the source's name).
The test system of a further assay is CAKI-1. Put plainly: NCI-60 SRB growth inhibition: CAKI-1. The conditions noted are these: CAKI-1, Renal cancer; 48 hours treatment. The assay is classed as cell-based, human.
The next assay deals with U251. Nature of the assay: NCI-60 SRB growth inhibition: U251. The assay is classed as cell-based, human. The conditions noted are these: U251, CNS cancer, 48 hours treatment; for CC50: Homo sapiens, U-251, read-out: LC50 (the source's name).
The subject of the next assay is ACHN. Put plainly: NCI-60 SRB growth inhibition: ACHN. The assay is classed as cell-based, human. The settings on record: Renal cancer, 48 hours treatment; for CC50: Homo sapiens, read-out: LC50 (the source's name).
The subject of assay [1] is MDA-MB-468. Nature of the assay: NCI-60 SRB growth inhibition: MDA-MB-468. The assay is classed as cell-based, human. The conditions noted are these: MDA-MB-468, Breast cancer, 48 hours treatment; for CC50: Homo sapiens, read-out: LC50 (the source's name).
Another assay concerns SK-OV-3. Nature of the assay: NCI-60 SRB growth inhibition: SK-OV-3. The assay is classed as cell-based, human. The conditions noted are these: SK-OV-3, Ovarian cancer; 48 hours treatment.
The next assay relates to HOP-92. Nature of the assay: NCI-60 SRB growth inhibition: HOP-92. The assay is classed as cell-based, human. The settings on record: HOP-92, Non-small cell lung cancer; 48 hours treatment.
For a further assay, the system named is NCI/ADR-RES. Put plainly: NCI-60 SRB growth inhibition: NCI/ADR-RES. The assay is classed as cell-based, human. The conditions noted are these: Ovarian cancer, 48 hours treatment; for CC50: Homo sapiens, read-out: LC50 (the source's name).
Another assay relates to A549/ATCC. Put plainly: NCI-60 SRB growth inhibition: A549/ATCC. The assay is classed as cell-based, human. The settings on record: Non-small cell lung cancer, 48 hours treatment; for CC50: Homo sapiens, read-out: LC50 (the source's name).
A further assay deals with CCRF-CEM. Nature of the assay: NCI-60 SRB growth inhibition: CCRF-CEM. The assay is classed as cell-based, human. The settings on record: Leukemia, 48 hours treatment.
Assay [2] has as its system MDA-MB-468. Nature of the assay: Annexin V assay, MDA-MB-468 cells. The assay is classed as cell-based, human. The settings on record: MDA-MB-468, higher doses, within 24 hours.
In another assay the target is T2, ABL1(F317L) (Homo sapiens, UniProt P00519, F317L).
T2 construct: purchased Ambit Bioscience (assay service)
Put plainly: Kinase binding screening: ABL1(F317L). The conditions noted are these: 10 μM compound, phosphorylated form, read-out: B-POC (binding percentage of control). Here is the method: as §1, §2, §3, §4

Assay [3] has as its system MDA-MB-468. Put plainly: Cell cycle analysis of MDA-MB-468 cells. The assay is classed as cell-based, human. The settings on record: MDA-MB-468, within 24 hours.

T1 sequence (P00519 whole entry F317I): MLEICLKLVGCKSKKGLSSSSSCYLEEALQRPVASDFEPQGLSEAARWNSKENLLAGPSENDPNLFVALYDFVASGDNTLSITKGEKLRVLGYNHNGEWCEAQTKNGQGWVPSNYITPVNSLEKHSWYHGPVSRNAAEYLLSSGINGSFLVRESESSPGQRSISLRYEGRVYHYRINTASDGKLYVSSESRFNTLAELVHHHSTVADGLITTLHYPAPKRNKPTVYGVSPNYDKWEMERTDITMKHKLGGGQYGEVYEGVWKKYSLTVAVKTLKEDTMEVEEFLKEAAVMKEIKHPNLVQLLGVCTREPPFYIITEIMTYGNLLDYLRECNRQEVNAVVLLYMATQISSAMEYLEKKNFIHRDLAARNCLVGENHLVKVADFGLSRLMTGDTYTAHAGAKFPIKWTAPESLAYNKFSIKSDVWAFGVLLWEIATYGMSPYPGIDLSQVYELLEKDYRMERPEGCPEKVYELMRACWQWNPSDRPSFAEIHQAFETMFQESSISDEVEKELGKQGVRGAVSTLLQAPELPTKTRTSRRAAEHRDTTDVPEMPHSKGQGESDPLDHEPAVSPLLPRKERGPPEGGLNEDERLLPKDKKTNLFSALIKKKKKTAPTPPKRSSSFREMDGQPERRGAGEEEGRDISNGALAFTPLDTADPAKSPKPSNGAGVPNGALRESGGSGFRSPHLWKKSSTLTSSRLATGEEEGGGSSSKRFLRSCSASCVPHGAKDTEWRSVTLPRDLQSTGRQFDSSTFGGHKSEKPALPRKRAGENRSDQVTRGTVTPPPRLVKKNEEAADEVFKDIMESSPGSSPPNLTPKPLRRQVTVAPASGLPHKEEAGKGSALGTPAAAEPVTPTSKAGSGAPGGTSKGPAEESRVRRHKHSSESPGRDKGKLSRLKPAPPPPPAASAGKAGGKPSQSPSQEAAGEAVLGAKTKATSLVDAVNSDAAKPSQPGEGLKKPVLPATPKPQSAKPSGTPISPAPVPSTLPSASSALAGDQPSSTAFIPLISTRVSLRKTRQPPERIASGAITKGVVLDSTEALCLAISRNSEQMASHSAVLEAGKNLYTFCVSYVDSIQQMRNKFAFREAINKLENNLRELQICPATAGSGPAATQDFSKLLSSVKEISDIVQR
T2 sequence (P00519 whole entry F317L): as the sequence (P00519 whole entry F317I) above, with I317L counted along it

With `c1ccc(Cc2cnc(N3CCN(c4ncnc5ccccc45)CC3)nc2)cc1` [Compound 4, 4-(4-(5-benzylpyrimidin-2-yl)piperazin-1-yl)quinazoline], the remaining activity at 10 µM at ABL1(F317I) was 30%. The TGI with UO-31 is 38.40 µM; in the assay on T-47D, 45.50 µM; in the assay on CAKI-1, 39.30 µM; in the assay on U251, 24.60 µM; in the assay with ACHN, 42.40 µM; in the assay on MDA-MB-468 [1] it was 2.73 µM. The TGI in the assay on SK-OV-3 is more than 100 µM; with HOP-92, 24.20 µM; in the assay on NCI/ADR-RES it was 17.60 µM; in the assay on A549/ATCC, 35.70 µM; with CCRF-CEM, 64.40 µM. Also, the CC50 is more than 100 µM in the assay with T-47D; 54.1 µM with U251; more than 100 µM with ACHN; more than 100 µM with MDA-MB-468 [1]; 66.4 µM in the assay with NCI/ADR-RES; more than 100 µM in the assay on A549/ATCC.

On to `O=C(c1cccc(Nc2ncnc3ccccc23)c1)N1CCN(c2ncc(Cc3ccccc3)cn2)CC1` [Compound 16, (4-(5-benzylpyrimidin-2-yl)piperazin-1-yl)(3-(quinazolin-4-ylamino)phenyl)methanone], for which, on ABL1(F317I), the remaining activity at 10 µM is 20%. In addition, the TGI with UO-31 worked out at 1.82 µM; in the assay on T-47D, 7.59 µM; in the assay with CAKI-1, 1.91 µM; with U251, 6.61 µM; in the assay with ACHN it was 4.57 µM; with MDA-MB-468 [1], 3.47 µM. For the same compound, the TGI turned out to be 4.47 µM in the assay on SK-OV-3, 8.51 µM with NCI/ADR-RES and 3.09 µM with A549/ATCC. Moreover, the CC50 was 5.62 µM with T-47D; more than 100 µM with U251; more than 100 µM in the assay with ACHN; more than 100 µM in the assay with MDA-MB-468 [1]; more than 100 µM with NCI/ADR-RES; 8.13 µM with A549/ATCC.

`CCc1cnc(N2CCN(C(=O)c3ccc(CNc4ncnc5ccccc45)cc3)CC2)nc1` [Compound 15, (4-(5-ethylpyrimidin-2-yl)piperazin-1-yl)(4-((quinazolin-4-ylamino)methyl)phenyl)methanone]: the TGI is 60.50 µM in the assay on UO-31; more than 100 µM in the assay on T-47D; 94.80 µM in the assay on CAKI-1; more than 100 µM in the assay with U251; 82.50 µM with ACHN; 2.22 µM in the assay with MDA-MB-468 [1]. The concentration for total growth inhibition (TGI) is more than 100 µM in the assay with SK-OV-3; 80.09 µM in the assay with HOP-92; 21.50 µM in the assay with NCI/ADR-RES; more than 100 µM with A549/ATCC; 60.90 µM in the assay on CCRF-CEM. Also, the CC50 in the assay on T-47D, with U251, in the assay with ACHN, in the assay with MDA-MB-468 [1], with NCI/ADR-RES and in the assay with A549/ATCC was more than 100 µM throughout. The “apoptosis (Annexin V)” value in the assay with MDA-MB-468 [2] is “a significant fraction of the tumor cells undergo apoptosis”. The remaining activity at 10 µM on ABL1(F317L) worked out at 6.8%. The cell cycle effect entry in the assay on MDA-MB-468 [3] was “arrest at the G2/M phase of the cell cycle”.
